The source of these data is patent EP0074411B1, “ASCORBIC ACID DERIVATIVES” (SANTEN PHARMACEUTICAL CO., LTD., priority 1981, dated 1982).

SMILES strings stand for the structures.

The test system of the data set is ddY-SPF strain male mouse. As to the kind of experiment: Acute toxicity test. It is filed as in vivo. Conditions: ddY-SPF strain male mouse (weight: 25 to 30 g); administered orally as 0.5% tragacanth suspension. As to the method:
Acute toxicity test • Acute toxicity of 3,6-0,0' - dipivaloyl - L - ascorbic acid of this invention is shown below. • Animal: ddY-SPF strain male mouse (weight: 25 to 30 g) • Method of administration: The compound is administered orally as 0.5% tragacanth suspension. • Acute toxicity: LDso 5000 mg/kg.

`CC(C)(C)C(=O)OC[C@H](O)[C@H]1OC(=O)C(O)=C1OC(=O)C(C)(C)C` [3,6-0,0'-Dipivaloyl-L-ascorbic acid]: the “Acute toxicity: LDso” value was found to be 5000 mg/kg.
